Like-named read-outs stand apart in the source and are kept apart here.
Assays:
Pim-1 = Pim-1 (Homo sapiens (Human), UniProt P11309); assay: ADP-Glo Kinase Assay, Pim-1; type: biochemical; settings: 1 μM compound; for inhibition at 1 µM: read-out: Pim-1 % INH (1 μM)
Procedure: (§1) Compounds of the present invention were tested for their inhibitory activity against Pim-1, Pim-2, Pim-3, Flt3 wt, Flt3 ITD, CDK2/E and DYRK1. The testing of the compounds was carried out using the ADP-Glo™ Kinase Assay from Promega Corporation (Madison, Wis., USA).
(§2) The ADP-Glo™ Kinase Assay is a luminescent ADP detection assay to measure kinase activity by quantifying the amount of ADP produced during a kinase reaction. The kinase assay is performed in kinase assay buffer (5 mM MOPS, pH 7.5, 5 mM MgCl2, 0.4 mM EDTA, 1.5 mM DTT). Test samples initially dissolved in DMSO at 10 mM were diluted with the assay buffer to 1000 nM. A 30 μL volume/well of a mixture of substrates containing ATP (final ATP concentration in each kinase assay was equal to its apparent ATP Km).
(§3) The assay was performed in two steps: first, after the kinase reaction, an equal volume of ADP-Glo™ Reagent was added to terminate the kinase reaction and deplete the remaining ATP. Second, the Kinase Detection Reagent was added to simultaneously convert ADP to ATP and allowed the newly synthesized ATP to be measured using a luciferase/luciferin reaction. The luminescent signal generated was proportional to the ADP concentration produced and was correlated with kinase activity. A microplate spectrophotometer (Synergy 2 multi-mode microplate reader [BioTek]) was used for detecting the luminescence. The data was normalized and the percent of inhibition was obtained according to the following equation: […]

Pim-2 = Pim-2 (Homo sapiens (Human), UniProt Q9P1W9); assay: ADP-Glo Kinase Assay, Pim-2; type: biochemical; settings: 1 μM compound; for inhibition at 1 µM: read-out: Pim-2 % INH (1 μM)
Chain of Pim-2 (Q9P1W9 whole entry): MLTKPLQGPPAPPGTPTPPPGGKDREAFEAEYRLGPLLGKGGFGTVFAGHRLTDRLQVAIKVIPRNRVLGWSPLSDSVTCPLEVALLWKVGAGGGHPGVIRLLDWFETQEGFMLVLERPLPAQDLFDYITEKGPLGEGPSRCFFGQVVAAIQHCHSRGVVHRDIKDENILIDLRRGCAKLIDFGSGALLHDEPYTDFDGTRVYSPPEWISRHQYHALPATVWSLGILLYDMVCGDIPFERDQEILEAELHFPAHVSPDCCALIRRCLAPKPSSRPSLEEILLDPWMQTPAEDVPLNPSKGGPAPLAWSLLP
Procedure: as §1, §2, §3

Pim-3 = Pim-3 (Homo sapiens (Human), UniProt Q86V86); assay: ADP-Glo Kinase Assay, Pim-3; type: biochemical; settings: 1 μM compound; for inhibition at 1 µM: read-out: Pim-3 % INH (1 μM)
Procedure: as §1, §2, §3

FLT3wt = FLT3wt (Homo sapiens (Human), UniProt P36888); assay: ADP-Glo Kinase Assay, Flt3 wt; type: biochemical; settings: 1 μM compound; for inhibition at 1 µM: read-out: Flt3wt % INH (1 μM)
Chain of FLT3wt (P36888 27-993): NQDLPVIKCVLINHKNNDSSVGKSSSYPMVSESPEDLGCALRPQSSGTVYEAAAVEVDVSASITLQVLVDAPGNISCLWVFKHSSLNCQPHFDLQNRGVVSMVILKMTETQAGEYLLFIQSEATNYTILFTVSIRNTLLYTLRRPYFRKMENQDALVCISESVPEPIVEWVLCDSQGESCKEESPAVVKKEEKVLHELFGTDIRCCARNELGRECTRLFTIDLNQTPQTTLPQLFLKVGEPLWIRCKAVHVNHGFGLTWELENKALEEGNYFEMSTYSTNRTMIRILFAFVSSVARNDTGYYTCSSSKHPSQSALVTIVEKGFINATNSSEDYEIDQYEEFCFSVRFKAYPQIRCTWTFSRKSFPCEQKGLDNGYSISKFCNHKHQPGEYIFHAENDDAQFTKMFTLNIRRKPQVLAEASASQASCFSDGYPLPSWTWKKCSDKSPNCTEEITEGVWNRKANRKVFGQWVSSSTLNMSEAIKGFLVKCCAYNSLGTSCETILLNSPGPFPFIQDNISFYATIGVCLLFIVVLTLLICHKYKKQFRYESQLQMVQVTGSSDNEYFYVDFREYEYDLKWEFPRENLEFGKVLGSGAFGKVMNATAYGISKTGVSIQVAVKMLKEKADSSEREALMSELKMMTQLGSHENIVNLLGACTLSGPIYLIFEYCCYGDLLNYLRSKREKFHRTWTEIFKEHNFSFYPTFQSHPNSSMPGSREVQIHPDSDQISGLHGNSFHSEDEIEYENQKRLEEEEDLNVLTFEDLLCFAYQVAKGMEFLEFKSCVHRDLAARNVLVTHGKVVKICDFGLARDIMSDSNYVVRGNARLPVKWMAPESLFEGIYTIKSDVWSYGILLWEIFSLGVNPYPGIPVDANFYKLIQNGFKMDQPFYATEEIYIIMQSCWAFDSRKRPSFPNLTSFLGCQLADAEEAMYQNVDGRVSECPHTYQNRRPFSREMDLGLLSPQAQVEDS
Procedure: as §1, §2, §3

CDK2/E = CDK2/E (Homo sapiens (Human), UniProt P24941); assay: ADP-Glo Kinase Assay, CDK2/E; type: biochemical; settings: 1 μM compound; for inhibition at 1 µM: read-out: CDK2/E % INH (1 μM)
Procedure: as §1, §2, §3

DYRK1 = DYRK1 (Homo sapiens (Human), UniProt Q13627); assay: ADP-Glo Kinase Assay, DYRK1; type: biochemical; settings: 1 μM compound; for inhibition at 1 µM: read-out: DYRK1A % INH (1 μM)
Procedure: as §1, §2, §3

MV4-11 cells = assay: Growth inhibition, MTS assay, MV4-11; type: cell-based, Human; settings: MTS cell viability, read-out: MV4-11 ED50
Text: (§4) The following cell lines, were obtained and used in tests as outlined below: • Human myelomonocytic, biphenotypic leukemia MV4-11 cells (harboring a Flt3-ITD mutation); • Human Acute Myeloid Leukemia MOLM16 cells; • Human Acute Myeloid Leukemia MOLM13 cells (harboring a Flt3-ITD mutation); • Human Myeloid Leukemia KG-1 cells; • Human erythroleukemia HEL92 cells; • Human mantle cell lymphoma Jeko-1 cells; • Human hepatocellular carcinoma HepG2 cells; and • Human colon adenocarcinoma SW-480 cells.
(§5) The assays were carried out according to the following protocol, which is described as an example for the MV4-11 cells:
(§6) Ten thousand MV4-11 cells were inoculated into each well of a 96-well microplate (manufactured by Corning Corp.) using Iscove's MDM medium (culture medium) containing 10% fetal calf serum (FCS). The same day, a dimethyl sulfoxide (DMSO) solution of each test compound prepared in a concentration of 10 mmol/L was further diluted with DMSO to the desired concentrations (0.1, 0.5, 1, 2.5, 5 and 10 micromol/L), and the diluted solution was added to each well. The individual wells were further cultured in 5% carbon dioxide at 37° C. for 72 hours. […] Briefly, 10 μl MTS (3-(4,5-Dimethyl-2-thiazolyl)-5-(carboxymethoxyphenyl)-2-(4-sulfophenyl)-2H-tetrazolium was added to each well, and culturing was performed in 5% carbon dioxide at 37° C. for 2 hours. After this incubation and using a microplate spectrophotometer (Synergy 2 multi-mode microplate reader (BioTek)), the absorbance of each well was measured at 490 nm. The value for cells not incubated with a test compound was designated as 100%. By comparing these values with the absorbance difference obtained at the well in which each test compound was added, the cell viability (% viability) after treatment with the test compound was calculated.

HepG2 cells = assay: Growth inhibition, MTS assay, HepG2; type: cell-based, Human; settings: MTS cell viability, read-out: HepG2 ED50
Text: as §4, §5, §6

HEL92 cells = assay: Growth inhibition, MTS assay, HEL92; type: cell-based, Human; settings: MTS cell viability, read-out: HEL92 ED50
Text: as §4, §5, §6

Chain of Pim-1 (P11309 whole entry): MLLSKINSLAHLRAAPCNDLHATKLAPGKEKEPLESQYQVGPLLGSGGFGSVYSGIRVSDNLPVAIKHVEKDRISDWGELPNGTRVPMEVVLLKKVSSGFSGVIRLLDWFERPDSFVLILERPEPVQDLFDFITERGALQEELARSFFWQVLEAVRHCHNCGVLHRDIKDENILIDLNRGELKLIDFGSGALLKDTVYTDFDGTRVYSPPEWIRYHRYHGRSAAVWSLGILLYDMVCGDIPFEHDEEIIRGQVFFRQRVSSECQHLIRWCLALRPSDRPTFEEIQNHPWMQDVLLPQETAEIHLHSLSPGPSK

Row | SMILES | inhibition at 1 µM (Pim-1) | inhibition at 1 µM (Pim-2) | inhibition at 1 µM (Pim-3) | inhibition at 1 µM (FLT3wt) | inhibition at 1 µM (CDK2/E) | inhibition at 1 µM (DYRK1) | IC50 (MV4-11 cells; Homo sapiens, MV4-11, 72 h) | IC50 (HepG2 cells; Homo sapiens, HepG2, 72 h) | Pim-1 % INH (1 μM) (Pim-1) | Pim-2 % INH (1 μM) (Pim-2) | Pim-3 % INH (1 μM) (Pim-3) | Flt3wt % INH (1 μM) (FLT3wt) | CDK2/E % INH (1 μM) (CDK2/E) | DYRK1A % INH (1 μM) (DYRK1) | IC50 (MV4-11 cells; 72 hours) | IC50 (HepG2 cells; 72 hours) | IC50 (HEL92 cells; 72 hours) | IC50 (HEL92 cells; Homo sapiens, 72 h)
1 | CCn1c(NCC(O)CN)nc2c([N+](=O)[O-])c(Br)c(Br)cc21 (stereo not shown) [Example 1G] | 76% | 34% | 57% | 6% | < 5% | 12% |  |  |  |  |  |  |  |  |  |  |  | 
2 | COCCn1c(N2CC[C@@H](N)C2)nc2c([N+](=O)[O-])c(Br)c(Br)cc21 [Example 1CS] |  |  |  |  |  |  |  |  | >95% | 23% | 56% | 10% | 9% | 37% | 4.8 µM | 4.7 µM |  | 
3 | CC(C)n1c(NC2CNC2)nc2c([N+](=O)[O-])c(Br)c(Br)cc21 [Example 1CR] |  |  |  |  |  |  |  |  | >95% |  |  | 44% |  | 70% | 1.1 µM | 1.9 µM | 8.7 µM | 
4 | Cl.NC1CCCN(c2nc3c([N+](=O)[O-])c(Br)c(Br)cc3n2CC2CC2)C1 (stereo not shown) [Example 1AV] |  |  |  |  |  |  |  |  | >95% | 54% | 91% | 37% | 12% | 46% | 1.4 µM | 4.5 µM |  | 
5 | CC(C)n1c(N[C@H]2CNC[C@@H]2O)nc2c([N+](=O)[O-])c(Br)c(Br)cc21.Cl [Example 1CE] |  |  |  |  |  |  |  |  | >95% | 53% | 76% | 12% | <5% | 37% | 2.8 µM | 3.2 µM |  | 
6 | CCn1c(N2CCNC[C@@H]2C)nc2c(C#N)c(Br)c(Br)cc21 [Example 1DP] | > 95% |  |  | 57% |  | > 95% | 0.1 µM | 0.2 µM |  |  |  |  |  |  |  |  |  | 0.5 µM
7 | CC(C)n1c(N2CCNCC2CO)nc2c([N+](=O)[O-])c(Br)c(Br)cc21 (stereo not shown) [Example 1DN] |  |  |  |  |  |  |  |  | >95% |  |  | 55% |  | 38% | 0.5 µM | 0.9 µM | 4.5 µM | 
8 | CC(C)n1c(N2CCNC[C@H]2C)nc2c([N+](=O)[O-])c(Br)c(Br)cc21 [Example 1AO] |  |  |  |  |  |  |  |  | 95% |  | 59% | 26% |  | 15% | 0.6 µM | 1.7 µM | 3.8 µM | 
9 | Cl.N[C@H]1CCN(c2nc3c([N+](=O)[O-])c(Br)c(Br)cc3n2CC2CC2)C1 [Example 1CK] |  |  |  |  |  |  |  |  | >95% |  |  | 30% | 24% | 23% | 2.0 µM | 5.3 µM | 6.9 µM | 
10 | CCCn1c(N2CC[C@@H](N)C2)nc2c([N+](=O)[O-])c(Br)c(Br)cc21 [Example 1CM] |  |  |  |  |  |  |  |  | >95% |  |  | 26% |  | 95% | 0.8 µM | 2.6 µM | 5.2 µM | 
11 | CC(C)n1c(N2CCC(N)CC2)nc2c([N+](=O)[O-])c(Br)c(Br)cc21 [Example 1CP] |  |  |  |  |  |  |  |  | >95% |  |  | 32% | 39% | 44% | 0.6 µM | 1.2 µM | 5.8 µM | 
12 | CC(C)n1c(N2CC(N)C2)nc2c([N+](=O)[O-])c(Br)c(Br)cc21 [Example 1CX] | > 95% |  |  | 44% |  | 73% | 1.2 µM | 3.1 µM |  |  |  |  |  |  |  |  |  | 4.1 µM
13 | CC(C)n1c(NCC(O)CN)nc2c([N+](=O)[O-])c(Br)c(Br)cc21 (stereo not shown) [Example 1W] | 89% |  | 92% | < 5% | < 5% | 40% |  |  |  |  |  |  |  |  |  |  |  | 
14 | CC(C)n1c(NC2CCNCC2)nc2c([N+](=O)[O-])c(Br)c(Br)cc21 [Example 1DK] |  |  |  |  |  |  |  |  | >95% |  |  |  |  | 25% | 5.5 µM | 5.7 µM | 5.8 µM | 
15 | CC(C)n1c(NC2CCC(N)CC2)nc2c([N+](=O)[O-])c(Br)c(Br)cc21 (stereo not shown) [Example 1CQ] |  |  |  |  |  |  |  | 2 µM | >95% |  |  | 17% | 50% | 28% | 1.7 µM |  | 6.0 µM | 

The next lines start with results.

Row | inhibition at 1 µM (Pim-1) | inhibition at 1 µM (Pim-2) | inhibition at 1 µM (Pim-3) | inhibition at 1 µM (FLT3wt) | inhibition at 1 µM (CDK2/E) | inhibition at 1 µM (DYRK1) | IC50 (MV4-11 cells; Homo sapiens, MV4-11, 72 h) | IC50 (HepG2 cells; Homo sapiens, HepG2, 72 h) | Pim-1 % INH (1 μM) (Pim-1) | Pim-2 % INH (1 μM) (Pim-2) | Pim-3 % INH (1 μM) (Pim-3) | Flt3wt % INH (1 μM) (FLT3wt) | CDK2/E % INH (1 μM) (CDK2/E) | DYRK1A % INH (1 μM) (DYRK1) | IC50 (MV4-11 cells; 72 hours) | IC50 (HepG2 cells; 72 hours) | SMILES | IC50 (HEL92 cells; 72 hours) | IC50 (HEL92 cells; Homo sapiens, 72 h)
16 | 82% | 23% | 44% | < 5% | < 5% | 21% | 2.6 µM | 4.2 µM |  |  |  |  |  |  |  |  | CCn1c(Nc2ccccc2N)nc2c([N+](=O)[O-])c(Br)c(Br)cc21 [Example 22N, 1-N-(5,6-dibromo-1-ethyl-4-nitro-1H-1,3-benzodiazol-2-yl)benzene-1,2-diamine] |  | 
17 | > 95% | 30% | 61% | 7% | < 5% | 16% | 4.1 µM | 7.2 µM |  |  |  |  |  |  |  |  | COC(CN)CNc1nc2c(C#N)c(Br)c(Br)cc2n1C(C)C (stereo not shown) [Example 22AC, 2-[(3-amino-2-methoxypropyl)amino]-5,6-dibromo-1-(propan-2-yl)-1H-1,3-benzodiazole-4-carbonitrile] |  | 
18 | > 95% |  | 71% | < 5% | 16% |  |  |  |  |  |  |  |  |  |  |  | CC(C)n1c(N2CCCC(CO)C2)nc2c([N+](=O)[O-])c(Br)c(Br)cc21 (stereo not shown) [Example 22H, {1-[5,6-dibromo-4-nitro-1-(propan-2-yl)-1H-1,3-benzodiazol-2-yl]piperidin-3-yl}methanol] |  | 
19 | > 95% | 40% | 85% | 23% | < 5% | 28% | 4.1 µM |  |  |  |  |  |  |  |  |  | CC(C)n1c(N2CCOCC2)nc2c([N+](=O)[O-])c(Br)c(Br)cc21 [Example 22K, 5,6-dibromo-2-(morpholin-4-yl)-4-nitro-1-(propan-2-yl)-1H-1,3-benzodiazole] |  | 
20 | > 95% |  |  |  |  | 31% | 0.7 µM | 1.2 µM |  |  |  |  |  |  |  |  | CC(C)n1c(N2CCNC(CO)C2)nc2c([N+](=O)[O-])c(Br)c(Br)cc21 (stereo not shown) [Example 22AD, {4-[5,6-dibromo-4-nitro-1-(propan-2-yl)-1H-1,3-benzodiazol-2-yl]piperazin-2-yl}methanol] |  | 6.2 µM
